Laboratory results: US6867207B2, “IL-5 inhibiting 6-azauracil derivatives” (Janssen Pharmaceutica N.V., priority 1997, dated 2005)
Marks after values point to notes of the source that are not given here.

What follows are compounds tested on IL-5 production (assay: In vitro inhibition of IL-5 production in human blood (phytohemagglutinin-stimulated whole blood, ELISA)). Conditions: test dose 1×10^−5 M (values marked *), 48 hours.
Assay type: cell-based
Method in brief: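 Heparinised blood from healthy male donors, diluted threefold in RPMI 1640, preincubated 60 min at 37° C with compound (0.02% DMSO vehicle), then stimulated with 2 μg/mL phytohemagglutinin for 48 h. Supernatant IL-5 measured by ELISA; percentage inhibition at 1×10^−6 M or 1×10^−5 M.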

| Compound | % inh. (percentage inhibition of IL-5 production), marked with * |
| --- | --- |
| O=c1cnn(-c2ccc(C(Sc3nc4ccccc4[nH]3)c3ccc(Cl)cc3)c(Cl)c2)c(=O)[nH]1 (racemic) [Compound 52] | 57* % |
| Cc1cc(O)nc(SC(c2ccc(Cl)cc2)c2ccc(-n3ncc(=O)[nH]c3=O)cc2Cl)n1 (racemic) [Compound 60] | 24* % |

Same assay, conditions: test dose 1×10^−6 M, 48 hours

| Compound | % inh. (percentage inhibition of IL-5 production) [%] |
| --- | --- |
| O=c1cnn(-c2cc(Cl)c(C(c3ccc(Cl)cc3)c3nc(-c4ccccc4)c(CNS(=O)(=O)Cc4ccccc4)s3)c(Cl)c2)c(=O)[nH]1 (racemic) [Comp 336] | 88 |
| Cc1nnc(SC(c2ccc(Cl)cc2)c2ccc(-n3ncc(=O)[nH]c3=O)cc2Cl)[nH]c1=O (stereo not shown) [Compound 85] | 38 |
| O=c1cnn(-c2cc(Cl)c(C(c3ccc(Cl)cc3)c3nc(-c4cc(F)cc(F)c4)cs3)c(Cl)c2)c(=O)[nH]1 (racemic) [Comp 286] | 86 |
| O=c1cnn(-c2ccc(C(Sc3ccccn3)c3ccc(Cl)c(C(F)(F)F)c3)c(Cl)c2)c(=O)[nH]1 (stereo not shown) [Compound 86] | 84 |
| Cc1cc(C)nc(SC(c2ccc(Cl)cc2)c2ccc(-n3ncc(=O)[nH]c3=O)cc2Cl)n1 (racemic) [Compound 66] | 64 |
| COc1cccc(-c2nnc(C(c3ccc(Cl)cc3)c3c(Cl)cc(-n4ncc(=O)[nH]c4=O)cc3Cl)o2)c1 (racemic) [Compound 170] | 62 |
| O=c1cnn(-c2ccc(C(O)(c3ccc(Cl)cc3)c3cccnc3)c(Cl)c2)c(=O)[nH]1 (stereo not shown) [Comp 117] | 34 |
| CNC(=O)Cc1sc(C(c2ccc(Cl)cc2)c2c(Cl)cc(-n3ncc(=O)[nH]c3=O)cc2Cl)nc1-c1ccccc1 (racemic) [Comp 301] | 33 |
| O=c1cnn(-c2cc(Cl)c(C(c3ccc(Cl)cc3)c3nc(-c4ccccc4)c(CNC(=S)Nc4ccccc4)s3)c(Cl)c2)c(=O)[nH]1 (racemic) [Compound 331, (±)-N-[[2-[(4-chlorophenyl)[2,6-dichloro-(4,5-dihydro-3,5-dioxo-1,2,4-triazin-2(3H)-yl)phenyl]methyl]4-phenyl-5-thiazolyl]methyl]-N′-phenyl-thiourea] | 95 |
| O=c1cnn(-c2cc(Cl)c(C(c3ccc(Cl)cc3)c3nc(-c4ccccc4Br)cs3)c(Cl)c2)c(=O)[nH]1 (racemic) [Comp 244] | 95 |
| Cc1nc(-c2ccccc2)c(C(c2ccc(Cl)cc2)c2c(Cl)cc(-n3ncc(=O)[nH]c3=O)cc2Cl)s1 (racemic) [Compound 136] | 93 |
| Cc1cc(C(c2nc(-c3ccccc3)cs2)c2c(Cl)cc(-n3ncc(=O)[nH]c3=O)cc2Cl)ccc1Cl (racemic) [Comp 269] | 90 |
| O=c1cnn(-c2cc(Cl)c(C(c3ccc(Cl)cc3)c3nnc(-c4cccnc4)o3)c(Cl)c2)c(=O)[nH]1 (racemic) [Compound 201] | 87 |
| CN1CCC(C(=O)Cc2sc(C(c3ccc(Cl)cc3)c3c(Cl)cc(-n4ncc(=O)[nH]c4=O)cc3Cl)nc2-c2ccccc2)CC1 (racemic) [Comp 283] | 93 |
| O=c1cnn(-c2cc(Cl)c(C(c3ccc(Cl)cc3)c3sc(-c4ccccc4)nc3-c3ccccc3Cl)c(Cl)c2)c(=O)[nH]1 (racemic) [Compound 145] | 37 |
| CC(c1ccc(Cl)cc1)(c1nc(-c2ccccc2)no1)c1ccc(-n2ncc(=O)[nH]c2=O)cc1Cl (racemic) [Comp 106] | 77 |
| COCCNC(=O)c1sc(C(c2ccc(Cl)cc2)c2c(Cl)cc(-n3ncc(=O)[nH]c3=O)cc2Cl)nc1-c1ccccc1 (racemic) [Comp 307] | 78 |
| O=c1cnn(-c2cc(Cl)c(C(c3ccc(Cl)cc3)c3nc(-c4ccccc4F)cs3)c(Cl)c2)c(=O)[nH]1 (racemic) [Comp 242] | 98 |
| O=c1cnn(-c2cc(Cl)c(C(c3ccc(Cl)cc3)c3ccccn3)c(Cl)c2)c(=O)[nH]1 (stereo not shown) [Comp 115] | 71 |

| Compound | % inh. (percentage inhibition of IL-5 production) [%] |
| --- | --- |
| O=c1cnn(-c2cc(Cl)c(C(c3ccc(Cl)cc3)c3nc(-c4cccc(C(F)(F)F)c4)cs3)c(Cl)c2)c(=O)[nH]1 (racemic) [Comp 20] | 70 |
| [N-]=[N+]=Nc1ccc(-c2nnc(C(c3ccc(Cl)cc3)c3c(Cl)cc(-n4ncc(=O)[nH]c4=O)cc3Cl)o2)cc1 (racemic) [Compound 185] | 81 |
| CC(c1ccc(Cl)c(C(F)(F)F)c1)(c1nc(-c2ccccc2)cs1)c1c(Cl)cc(-n2ncc(=O)[nH]c2=O)cc1Cl (racemic) [Comp 23] | 83 |
| O=c1cnn(-c2cc(Cl)c(C(c3ccc(Cl)cc3)c3nnc(-c4ccccc4)o3)c(Cl)c2)c(=O)[nH]1 (stereo not shown) [Compound 190, (B)-2-[3,5-dichloro-4-[(4-chlorophenyl)(5-phenyl-1,3,4-oxadizol-2-yl)methyl]phenyl]-1,2,4-triazine-3,5(2H,4H)-dione] | 83 |
| CN(C)CCNC(=O)c1sc(C(c2ccc(Cl)cc2)c2c(Cl)cc(-n3ncc(=O)[nH]c3=O)cc2Cl)nc1-c1ccccc1.O (racemic) [Comp 312] | 57 |
| O=c1cnn(-c2cc(Cl)c(C(c3ccc(Cl)cc3)c3nnc(C4CCCCC4)o3)c(Cl)c2)c(=O)[nH]1 (racemic) [Compound 159] | 87 |
| O=c1cnn(-c2cc(Cl)c(C(c3ccc(Cl)cc3)c3ncc(-c4ccccc4)s3)c(Cl)c2)c(=O)[nH]1 (racemic) [Comp 267] | 81 |
| CCCc1nnc(C(c2ccc(Cl)cc2)c2c(Cl)cc(-n3ncc(=O)[nH]c3=O)cc2Cl)o1 (racemic) [Compound 164] | 84 |
| CS(=O)(=O)O.O.O.O=c1cnn(-c2cc(Cl)c(C(Sc3nccc(N4CCOCC4)n3)c3ccc(Cl)cc3)c(Cl)c2)c(=O)[nH]1 (racemic) [Compound 344] | 82 |
| O=C(c1sc(C(c2ccc(Cl)cc2)c2c(Cl)cc(-n3ncc(=O)[nH]c3=O)cc2Cl)nc1-c1ccccc1)N1CCOCC1 (racemic) [Comp 306] | 92 |
| O=c1cnn(-c2ccc(C(c3ccc(Cl)cc3)c3sc(-c4ccccc4)nc3-c3ccccc3)c(Cl)c2)c(=O)[nH]1 (racemic) [Compound 140] | 45 |
| O=c1cnn(-c2cc(Cl)c(C(c3ccc(Cl)cc3)c3nnc(-c4cccc(O)c4)o3)c(Cl)c2)c(=O)[nH]1 (racemic) [Compound 200] | 43 |
| COc1ccc(Br)c(-c2csc(C(c3ccc(Cl)cc3)c3c(Cl)cc(-n4ncc(=O)[nH]c4=O)cc3Cl)n2)c1 (racemic) [Comp 25] | 88 |
| Cc1cccc(-c2csc(C(c3ccc(Cl)cc3)c3c(Cl)cc(-n4ncc(=O)[nH]c4=O)cc3Cl)n2)c1 (racemic) [Comp 22] | 93 |
| Nc1ccc(-c2nnc(C(c3ccc(Cl)cc3)c3c(Cl)cc(-n4ncc(=O)[nH]c4=O)cc3Cl)o2)cc1 (racemic) [Compound 184] | 83 |
| Cc1nc(-c2ccccc2Cl)sc1C(c1ccc(Cl)cc1)c1ccc(-n2ncc(=O)[nH]c2=O)cc1Cl (racemic) [Compound 154] | 42 |
| CN1CCN(C(=O)c2sc(C(c3ccc(Cl)cc3)c3c(Cl)cc(-n4ncc(=O)[nH]c4=O)cc3Cl)nc2-c2ccccc2)CC1 (racemic) [Comp 304] | 35 |
| Cc1sc(SC(c2ccc(Cl)c(C(F)(F)F)c2)c2c(Cl)cc(-n3ncc(=O)[nH]c3=O)cc2Cl)nc1-c1ccccc1 (stereo not shown) [Compound 392] | 87 |

Same assay, conditions: test dose 1×10^−6 M, 48 hours, read-out: % inh. (percentage inhibition of IL-5 production)

| Compound | inhibition at 1 µM [%] |
| --- | --- |
| O=c1cnn(-c2ccc(C(NCCO)c3ccc(Cl)cc3)c(Cl)c2)c(=O)[nH]1 (racemic) [Compound 51, (±)-2-[3-chloro-4-[(4-chlorophenyl)[(2-hydroxyethyl)amino]methyl]phenyl]-1,2,4-triazin-3,5(2H,4H)-dione] | 10 |
| CC(c1ccc(Cl)cc1)(c1nc2ccccc2o1)c1ccc(-n2ncc(=O)[nH]c2=O)cc1Cl (racemic) [Compound 132, (±)-2-[3-chloro-4-[1-(4-chlorophenyl)-1-(2-benzoxazolyl)ethyl]phenyl]-1,2,4-triazine-3,5(2H,4H)-dione] | 55 |
| CN1CCN(C(c2ccc(Cl)cc2)c2ccc(-n3ncc(=O)[nH]c3=O)cc2Cl)CC1 (racemic) [Compound 118, (±)-2-[3-chloro-4-[(4-chlorophenyl)(4-methyl-1-piperazinyl)methyl]phenyl]-1,2,4-triazine-3,5(2H,4H)-dione] | 34 |
| O=c1cnn(-c2ccc(C(Sc3ccccn3)c3ccc(Cl)cc3)c(Cl)c2)c(=O)[nH]1 (racemic) [Compound 93, (±)-2-[3-chloro-4-[(4-chlorophenyl)(2-pyridinyl-thio)methyl]phenyl]-1,2,4-triazine-3,5(2H,4H)-dione] | 86 |
| O=c1cnn(-c2cc(Cl)c(C(CO)c3ccc(Cl)cc3)c(Cl)c2)c(=O)[nH]1 (racemic) [Compound 420, (±)-2-[3,5-dichloro-4-[1-(4-chlorophenyl)-2-hydroxyethyl]phenyl]-1,2,4-triazine-3,5(2H,4H)-dione] | 33 |
| O=c1cnn(-c2ccc(C(Nc3nc4cccnc4s3)c3ccc(Cl)cc3)c(Cl)c2)c(=O)[nH]1 (racemic) [Compound 410, (±)-2-[3-chloro-4-[(4-chlorophenyl)[(thiazolo[5,4-b]pyridin-2-yl)amino]methyl]phenyl]-1,2,4-triazine-3,5(2H,4H)-dione] | 15 |
| O=c1cnn(-c2ccc(C(c3ccc(Cl)cc3)c3nc4ccccc4o3)c(Cl)c2)c(=O)[nH]1 (racemic) [Compound 131, (±)-2-[4-[2-benzoxazolyl(4-chlorophenyl)methyl]-3-chlorophenyl]-1,2,4-triazine-3,5(2H,4H)-dione] | 76 |
